Legend:
Type in all cases: cell-based
MCF7-ADR (resistant) = test: cytotoxic effect on MCF7-ADR resistant tumour cell line (comparison with taxol); details: exposure time 72 h, RPMI 1640 + 20 mM HEPES + 2 mM L-glutamine
Experimental: (§1) The products of the present invention were screened for their cytotoxic effect on different tumour cell lines, comparing their action with that of taxol.
(§2) Standard conditions: substrate RPMI 1640 + 20 mM HEPES + 2 mM Lglutamine.

A121 (Human ovarian) = test: cytotoxic effect on A121 tumour cell line (comparison with taxol); details: exposure time 72 h, RPMI 1640 + 20 mM HEPES + 2 mM L-glutamine
Experimental: as §1, §2

HT-29 (Human colon) = test: cytotoxic effect on HT-29 tumour cell line (comparison with taxol); details: exposure time 72 h, RPMI 1640 + 20 mM HEPES + 2 mM L-glutamine
Experimental: as §1, §2

A549 (Human NSCLC) = test: cytotoxic effect on A549 tumour cell line (comparison with taxol); details: exposure time 72 h, RPMI 1640 + 20 mM HEPES + 2 mM L-glutamine
Experimental: as §1, §2

L1210 (murine leukemia) = test: cytotoxic effect on L1210 tumour cell line (comparison with taxol); details: exposure time 48 h, RPMI 1640 + 20 mM HEPES + 2 mM L-glutamine
Experimental: as §1, §2

MCF7 (Human breast) = test: cytotoxic effect on MCF7 tumour cell line (comparison with taxol); details: exposure time 72 h, RPMI 1640 + 20 mM HEPES + 2 mM L-glutamine
Experimental: as §1, §2

Compound	IC50 (MCF7-ADR (resistant)) [nM]	IC50 (A121 (Human ovarian)) [nM]	IC50 (HT-29 (Human colon)) [nM]	IC50 (A549 (Human NSCLC)) [nM]	IC50 (L1210 (murine leukemia)) [nM]	IC50 (MCF7 (Human breast)) [nM]	IC50 (MCF7-ADR (resistant); Homo sapiens, NCI/ADR-RES) [nM]	IC50 (L1210 (murine leukemia); Mus musculus) [nM]
13-[(2R, 3S)-3-phenyl-2-hydroxy-3-tert-butoxycarbonylamino-propanoyl]-10-deacetyl-11,12-dihydrobaccatine III [1b]	128 ± 6.2	1.6 ± 0.2	3.6 ± 0.4	2.1 ± 0.3	32 ± 0.1	0.8 ± 0.2	–	–
CC(=O)O[C@@]12CO[C@@H]1C[C@H](O)[C@@]1(C)C(=O)[C@@H](O)C3=C(C)[C@@H](OC(=O)[C@H](O)[C@@H](NC(=O)OC(C)(C)C)c4ccccc4)C[C@@](O)([C@@H](OC(=O)c4ccccc4)[C@H]21)C3(C)C [1a, 13-[(2R, 3S)-3-phenyl-2-hydroxy-3-tert-butoxycarbonylamino-propanoyl]-10-epi-10-deacetylbaccatine III]	–	2.8 ± 0.3	3.4 ± 0.1	6.9 ± 0.3	–	2.2 ± 0.2	130 ± 2.2	46 ± 2.1
CC(=O)O[C@@]1([C@@H]2C(C)=C(O)C(=O)C3=C(C)[C@@H](OC(=O)[C@H](O)[C@@H](NC(=O)OC(C)(C)C)c4ccccc4)C[C@@](O)([C@H]2OC(=O)c2ccccc2)C3(C)C)CO[C@@H]1CCO [5a, 13-[(2R, 3S)-3-phenyl-2-hydroxy-3-tert-butoxy-carbonylamino-propanoyl]-C-seco-10-deacetylbaccatine III]	–	1.9	3.2	3.3	–	1.5	31.3	35 ± 1.2

From patent US5756776A, “Semi-synthetic taxanes with anti-tumoural activity” (Indena S.p.A., priority 1994, dated 1998)
